Test results reported in ChEMBL document CHEMBL1909046, “DrugMatrix in vitro pharmacology data”.

Experiments:
[1] = DRUGMATRIX: Calcium Channel Type L, Benzothiazepine radioligand binding (ligand: [3H] Diltiazem); type: cell membranes, Rattus norvegicus, Wistar, Brain, Membrane; settings: Not Active = under 50% inhibition at 10 µM
[2] = target: Tyrosine-protein kinase Lck (Homo sapiens, UniProt P06239); assay: DRUGMATRIX: Protein Tyrosine Kinase, LCK enzyme inhibition (substrate: Poly(Glu:Tyr)); type: cell-based, Insect cells; settings: Not Active = under 50% inhibition at 10 µM
Sequence of Tyrosine-protein kinase Lck (P06239 whole entry): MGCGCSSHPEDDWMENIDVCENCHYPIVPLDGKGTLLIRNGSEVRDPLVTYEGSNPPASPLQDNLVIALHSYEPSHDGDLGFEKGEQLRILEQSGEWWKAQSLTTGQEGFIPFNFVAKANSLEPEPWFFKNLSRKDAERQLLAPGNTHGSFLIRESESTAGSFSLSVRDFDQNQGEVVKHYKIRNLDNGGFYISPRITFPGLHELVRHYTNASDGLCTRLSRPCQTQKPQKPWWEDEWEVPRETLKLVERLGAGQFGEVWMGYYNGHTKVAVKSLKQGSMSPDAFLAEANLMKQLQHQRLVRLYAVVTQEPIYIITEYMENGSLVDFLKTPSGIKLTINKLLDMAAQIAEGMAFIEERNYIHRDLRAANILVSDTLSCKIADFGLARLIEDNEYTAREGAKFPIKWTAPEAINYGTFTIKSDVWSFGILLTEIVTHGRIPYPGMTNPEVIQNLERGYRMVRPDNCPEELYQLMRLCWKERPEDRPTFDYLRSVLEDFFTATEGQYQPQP

[3] = DRUGMATRIX: Sodium/nucleoside co-transporter radioligand binding (ligand: nitrobenzylthioinosine); type: cell membranes, Cavia porcellus, Dunkin-Hartley, Cerebral cortex, Membrane; settings: Not Active = under 50% inhibition at 10 µM
[4] = target: Sigma non-opioid intracellular receptor 1 (Homo sapiens, UniProt Q99720); assay: DRUGMATRIX: Sigma1 radioligand binding (ligand: [3H] Haloperidol); type: cell membranes, Jurkat, Membrane; settings: Not Active = under 50% inhibition at 10 µM; for Ki: read-out: Ki
Sequence of Sigma non-opioid intracellular receptor 1 (Q99720 whole entry): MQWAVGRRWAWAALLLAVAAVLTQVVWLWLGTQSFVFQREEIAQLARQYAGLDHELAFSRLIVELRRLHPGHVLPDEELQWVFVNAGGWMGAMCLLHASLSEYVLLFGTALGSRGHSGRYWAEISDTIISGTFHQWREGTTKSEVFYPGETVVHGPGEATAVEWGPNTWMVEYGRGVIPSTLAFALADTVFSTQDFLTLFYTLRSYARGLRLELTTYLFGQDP

[5] = target: T1, Muscarinic acetylcholine receptor M4 (Homo sapiens, UniProt P08173); type: cell membranes, CHO-K1, Membrane; further: in other assays of this panel Not Active means under 50% inhibition at 10 µM
T1 sequence (P08173 whole entry): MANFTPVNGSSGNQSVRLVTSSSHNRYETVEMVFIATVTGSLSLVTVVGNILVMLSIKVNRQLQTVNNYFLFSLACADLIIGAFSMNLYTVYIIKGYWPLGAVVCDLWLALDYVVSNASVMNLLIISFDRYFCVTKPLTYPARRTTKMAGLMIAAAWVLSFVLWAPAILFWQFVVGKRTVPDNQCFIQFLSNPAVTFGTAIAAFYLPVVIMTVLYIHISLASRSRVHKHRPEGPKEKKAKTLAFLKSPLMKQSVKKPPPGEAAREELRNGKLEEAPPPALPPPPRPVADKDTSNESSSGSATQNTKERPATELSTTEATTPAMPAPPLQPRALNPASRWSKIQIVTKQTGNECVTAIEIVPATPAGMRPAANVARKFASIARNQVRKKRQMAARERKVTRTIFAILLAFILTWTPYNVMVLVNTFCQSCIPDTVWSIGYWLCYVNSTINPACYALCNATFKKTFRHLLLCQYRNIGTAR

Row | Compound | IC50 [1] | Ki [1] | IC50 ([2]; insect cells) | IC50 [3] | Ki [3] | IC50 ([4]; jurkat) | IC50 ([5]; cho-k1) | IC50 ([4]; read-out: IC50) [µM] | Ki [4] [µM] | IC50 ([2]; read-out: IC50) [µM] | IC50 ([1]; read-out: IC50) [µM] | Ki ([1]; read-out: Ki) [µM] | IC50 ([3]; read-out: IC50) [µM] | Ki ([3]; read-out: Ki) [µM] | Ki ([2]; insect cells) | IC50 ([5]; read-out: IC50) [µM] | Ki ([5]; read-out: Ki) [µM]
1 | CC(N)C12CC3CC(CC(C3)C1)C2 (stereo not given) [RIMANTADINE] | Not Active | Not Active | Not Active | Not Active | Not Active | Not Active | Not Active |  |  |  |  |  |  |  |  |  | 
2 | CS(=O)(=O)c1ccc(C2=C(c3ccccc3)C(=O)OC2)cc1 [ROFECOXIB] | Not Active | Not Active | Not Active | Not Active | Not Active | Not Active | Not Active |  |  |  |  |  |  |  |  |  | 
3 | CCOc1cc(N)c(Cl)cc1C(=O)NCC1CN(Cc2ccc(F)cc2)CCO1 (stereo not given) [MOSAPRIDE] | Not Active | Not Active | Not Active | Not Active | Not Active |  | Not Active | 0.306 | 0.128 |  |  |  |  |  |  |  | 
4 | Cc1ccnc(NS(=O)(=O)c2ccc(N)cc2)n1 [SULFAMERAZINE] | Not Active | Not Active | Not Active | Not Active | Not Active | Not Active | Not Active |  |  |  |  |  |  |  |  |  | 
5 | OC[C@@H](O)[C@@H](O)[C@H](O)[C@H](O)CO [MANNITOL] | Not Active | Not Active | Not Active | Not Active | Not Active | Not Active | Not Active |  |  |  |  |  |  |  |  |  | 
6 | Oc1ccc(/C=C/c2cc(O)cc(O)c2)cc1 [RESVERATROL] | Not Active | Not Active | Not Active | Not Active | Not Active | Not Active | Not Active |  |  |  |  |  |  |  |  |  | 
7 | CC1=C(/C=C/C(C)=C/C=C/C(C)=C/C(=O)O)C(C)(C)CCC1 [TRETINOIN] | Not Active | Not Active | Not Active | Not Active | Not Active | Not Active | Not Active |  |  |  |  |  |  |  |  |  | 
8 | C=CCc1ccc2c(c1)OCO2 [SAFROLE] | Not Active | Not Active | Not Active | Not Active | Not Active | Not Active | Not Active |  |  |  |  |  |  |  |  |  | 
9 | CCN(CC)N=O [N-NITROSODIETHYLAMINE] | Not Active | Not Active | Not Active | Not Active | Not Active | Not Active | Not Active |  |  |  |  |  |  |  |  |  | 
10 | CCN1CCCC1CNC(=O)c1cc(S(N)(=O)=O)ccc1OC (stereo not given) [SULPIRIDE] | Not Active | Not Active | Not Active | Not Active | Not Active | Not Active | Not Active |  |  |  |  |  |  |  |  |  | 
11 | O=C1CC[C@@]2(O)[C@H]3Cc4ccc(O)c5c4[C@@]2(CCN3CC2CC2)[C@H]1O5 [NALTREXONE] | Not Active | Not Active | Not Active | Not Active | Not Active | Not Active | Not Active |  |  |  |  |  |  |  |  |  | 
12 | C[N+]1(C)[C@@H]2C[C@@H](OC(=O)[C@H](CO)c3ccccc3)C[C@H]1[C@@H]1O[C@@H]12.[Br-] [METHSCOPOLAMINE BROMIDE] | Not Active | Not Active | Not Active | Not Active | Not Active | Not Active |  |  |  |  |  |  |  |  |  |  | 
13 | CCN(CC)CCNC(=O)c1cc(Cl)c(N)cc1OC [METOCLOPRAMIDE] | Not Active | Not Active | Not Active | Not Active | Not Active | Not Active | Not Active |  |  |  |  |  |  |  |  |  | 
14 | O=C(OC[C@H]1O[C@@H](OC(=O)c2cc(O)c(O)c(OC(=O)c3cc(O)c(O)c(O)c3)c2)[C@H](OC(=O)c2cc(O)c(O)c(OC(=O)c3cc(O)c(O)c(O)c3)c2)[C@@H](OC(=O)c2cc(O)c(O)c(OC(=O)c3cc(O)c(O)c(O)c3)c2)[C@@H]1OC(=O)c1cc(O)c(O)c(OC(=O)c2cc(O)c(O)c(O)c2)c1)c1cc(O)c(O)c(OC(=O)c2cc(O)c(O)c(O)c2)c1 [TANNIC ACID] | Not Active | Not Active |  | Not Active | Not Active | Not Active | Not Active |  |  | 0.079 |  |  |  |  |  |  | 
15 | CN1C(=O)OC(C)(C)C1=O [TRIMETHADIONE] | Not Active | Not Active | Not Active | Not Active | Not Active | Not Active | Not Active |  |  |  |  |  |  |  |  |  | 
16 | Cc1cn([C@H]2C=C[C@@H](CO)O2)c(=O)[nH]c1=O [STAVUDINE] | Not Active | Not Active | Not Active | Not Active | Not Active | Not Active | Not Active |  |  |  |  |  |  |  |  |  | 
17 | CN1C[C@H](CNC(=O)OCc2ccccc2)C[C@@H]2c3cccc4c3c(cn4C)C[C@H]21 [METERGOLINE] |  |  | Not Active | Not Active | Not Active | Not Active | Not Active |  |  |  | 0.268 | 0.238 |  |  |  |  | 

Row | Compound | IC50 [1] | Ki [1] | IC50 ([2]; insect cells) | IC50 [3] | Ki [3] | IC50 ([4]; jurkat) | IC50 ([5]; cho-k1) | IC50 ([4]; read-out: IC50) [µM] | Ki [4] [µM] | IC50 ([2]; read-out: IC50) [µM] | IC50 ([1]; read-out: IC50) [µM] | Ki ([1]; read-out: Ki) [µM] | IC50 ([3]; read-out: IC50) [µM] | Ki ([3]; read-out: Ki) [µM] | Ki ([2]; insect cells) | IC50 ([5]; read-out: IC50) [µM] | Ki ([5]; read-out: Ki) [µM]
18 | CCN(CC)C(=S)SSC(=S)N(CC)CC | Not Active | Not Active | Not Active |  |  | Not Active | Not Active |  |  |  |  |  | 16.9 | 5.79 |  |  | 
19 | Cc1cc2c(s1)Nc1ccccc1N=C2N1CCN(C)CC1 [OLANZAPINE] |  |  | Not Active |  |  | Not Active |  |  |  |  |  |  |  |  |  |  | 
20 | CC(C)(C)NC[C@H](O)COc1cccc2c1CCCC2=O [LEVOBUNOLOL] | Not Active | Not Active | Not Active | Not Active | Not Active |  | Not Active | 0.773 | 0.325 |  |  |  |  |  |  |  | 
21 | Nc1nc(N)c2nc(-c3ccccc3)c(N)nc2n1 | Not Active | Not Active | Not Active | Not Active | Not Active | Not Active | Not Active |  |  |  |  |  |  |  |  |  | 
22 | Cc1ccc(S(=O)(=O)NC(=O)NN2CCCCCC2)cc1 [TOLAZAMIDE] | Not Active | Not Active | Not Active | Not Active | Not Active | Not Active | Not Active |  |  |  |  |  |  |  |  |  | 
23 | Cc1ccc(Cl)c(Nc2ccccc2C(=O)O)c1Cl [MECLOFENAMIC ACID] | Not Active | Not Active | Not Active | Not Active | Not Active | Not Active | Not Active |  |  |  |  |  |  |  |  |  | 
24 | CO[C@@H]1[C@@H](OC)[C@H](C)[C@@](O)(CC(=O)O)O[C@H]1[C@H](C)[C@H]1O[C@@]2(CC[C@@](C)([C@H]3CC[C@@](C)([C@@H]4O[C@@H]([C@H]5O[C@](C)(O)[C@H](C)C[C@@H]5C)C[C@@H]4O[C@@H]4C[C@H](OC)[C@@H](OC)[C@H](C)O4)O3)O2)C[C@H](O)[C@H]1C.N [MADURAMICIN] | Not Active | Not Active | Not Active | Not Active | Not Active | Not Active | Not Active |  |  |  |  |  |  |  |  |  | 
25 | CCC(C)(C)C(=O)O[C@H]1C[C@@H](C)C=C2C=C[C@H](C)[C@H](CC[C@@H]3C[C@@H](O)CC(=O)O3)[C@H]21 [SIMVASTATIN] | Not Active | Not Active | Not Active | Not Active | Not Active | Not Active | Not Active |  |  |  |  |  |  |  |  |  | 
26 | CN(C)CCC=C1c2ccccc2COc2ccccc21 [DOXEPIN] |  |  |  |  |  |  |  | 0.631 | 0.265 |  |  |  |  |  | Not Active |  | 
27 | C#C[C@]1(O)CC[C@H]2[C@@H]3[C@H](C)CC4=C(CCC(=O)C4)[C@H]3CC[C@@]21C [TIBOLONE] | Not Active | Not Active | Not Active | Not Active | Not Active | Not Active | Not Active |  |  |  |  |  |  |  |  |  | 
28 | Cc1nnc(NS(=O)(=O)c2ccc(N)cc2)s1 [SULFAMETHIZOLE] | Not Active | Not Active | Not Active | Not Active | Not Active | Not Active | Not Active |  |  |  |  |  |  |  |  |  | 
29 | C[C@]12CCC(=O)C[C@@H]1CC[C@@H]1[C@@H]2CC[C@]2(C)[C@@H](O)CC[C@@H]12 [STANOLONE] | Not Active | Not Active | Not Active | Not Active | Not Active | Not Active | Not Active |  |  |  |  |  |  |  |  |  | 
30 | CO[C@@]12[C@H](COC(N)=O)C3=C(C(=O)C(C)=C(N)C3=O)N1C[C@@H]1N[C@@H]12 [MITOMYCIN] | Not Active | Not Active | Not Active | Not Active | Not Active | Not Active | Not Active |  |  |  |  |  |  |  |  |  | 
31 | Cc1[nH]c(=O)c(C#N)cc1-c1ccncc1 [MILRINONE] | Not Active | Not Active | Not Active | Not Active | Not Active | Not Active | Not Active |  |  |  |  |  |  |  |  |  | 
32 | CC(Cl)(Cl)Cl [TRICHLOROETHANE] | Not Active | Not Active | Not Active | Not Active | Not Active | Not Active | Not Active |  |  |  |  |  |  |  |  |  | 
33 | CNCCCC12CCC(c3ccccc31)c1ccccc12 [MAPROTILINE] |  |  | Not Active |  |  | Not Active |  |  |  |  |  |  |  |  |  | 0.413 | 0.058
